# Measurements from patent publication US6881749B2, “Pyranoindazoles and their use for the treatment of glaucoma” (Alcon, Inc., priority 2001, dated 2005).
# Experiments:
# monkey = settings: due to its α1A receptor activity; cited from earlier work
# [1] = system: Conscious Cynomolgus Monkeys; experiment: IOP response in conscious cynomolgus monkeys; format: in vivo, cynomolgus monkey; settings: dose 100 μg, 6 hours after dose
# rabbits = settings: cited from earlier work
structure (smiles),measurement,setting,value
COc1ccccc1N1CCN(CCCNc2c(C)c(=O)n(C)c(=O)n2C)CC1 [5-methylurapidil],effect on IOP,monkey,lowers IOP
COc1cc(C[C@@H](C)N)c(OC)cc1I [(R)-DOI],Percent IOP Reduction ± SEM,[1],34.4 ± 4.98%
"CCCN(CCC)C1CCc2cccc(O)c2C1 (stereo not drawn) [Example 8-OH-DPAT, 8-hydroxydipropylaminotetralin]",effect on IOP,rabbits,reduces IOP
